Data reported in US20250090498A1, “TREATMENT OF PRIMARY CTLA-4 CHECKPOINT RELATED IMMUNODEFICIENCIES” (ADIENNE PHARMA & BIOTECH SA, priority 2023, published 2025).

Tests used:
[1] = toxicology, up to 3 weeks, PAS tissue pathology in C57BL/6 mice; type: in vivo; conditions: 0.36-0.18-0.09 mg/mouse intragastrically, enteric microparticles
Procedure: For assess toxicology, C57BL/6 mice received intragastrically escalating doses of 0.36-0.18-0.09 mg/mouse of 3-IAld or 1ME3CA formulated in enteric microparticles for up to 3 weeks as shown in Table 3 below. At the end of treatment, mice were sacrificed, and tissue pathology blindly examined on different organs after PAS staining of different section from each organ. Sections of organs from 4 mice in each group were separately evaluated.

[2] = target: T1, AhR (Homo sapiens, UniProt P35869); assay: AhR target gene expression by RT-PCR in A549, Calu-3, CaCo-2 and HepG32 cell lines; type: cell-based; set-up: endogenous in cells; host or cells: HepG2, A549, Calu-3, CaCo-2; conditions: for AhR activity at the higher 1000 M concentration: increased in CaCo-2 and HepG32 but not on Calu-3 cells
T1 sequence (P35869 11-848): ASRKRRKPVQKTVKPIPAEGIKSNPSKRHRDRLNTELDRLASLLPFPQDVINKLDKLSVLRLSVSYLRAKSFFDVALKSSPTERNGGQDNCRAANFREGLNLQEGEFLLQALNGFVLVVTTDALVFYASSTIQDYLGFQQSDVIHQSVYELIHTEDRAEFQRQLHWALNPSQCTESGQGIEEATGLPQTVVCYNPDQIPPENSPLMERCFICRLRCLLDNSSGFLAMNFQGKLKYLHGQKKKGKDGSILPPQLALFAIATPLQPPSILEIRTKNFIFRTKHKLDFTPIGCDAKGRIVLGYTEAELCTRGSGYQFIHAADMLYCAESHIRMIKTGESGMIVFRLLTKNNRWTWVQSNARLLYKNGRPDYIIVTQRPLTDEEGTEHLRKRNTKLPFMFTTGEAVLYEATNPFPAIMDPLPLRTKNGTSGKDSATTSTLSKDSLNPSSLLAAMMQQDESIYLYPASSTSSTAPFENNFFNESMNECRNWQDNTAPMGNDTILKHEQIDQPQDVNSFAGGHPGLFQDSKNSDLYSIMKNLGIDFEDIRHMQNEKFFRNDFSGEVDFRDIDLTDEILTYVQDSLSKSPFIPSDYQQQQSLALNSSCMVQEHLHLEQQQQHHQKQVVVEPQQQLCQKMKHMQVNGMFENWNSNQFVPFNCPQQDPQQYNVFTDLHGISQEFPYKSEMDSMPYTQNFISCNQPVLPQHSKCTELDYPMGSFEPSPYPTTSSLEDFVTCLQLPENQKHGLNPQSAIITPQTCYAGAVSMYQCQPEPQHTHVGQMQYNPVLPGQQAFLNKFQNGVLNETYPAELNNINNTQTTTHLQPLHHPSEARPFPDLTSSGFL
Procedure: ITE and FICZ are reference AhR agonists. Assays were performed at 4 hours post-incubation.
To further characterize the AhR agonistic potential of 1ME3CA, the ability of 3-IAld and 1ME3CA to activate target genes downstream AhR (Cyp1a1, Cyp2a1 and AhRR) in the A549 cell line derived from adenocarcinomic human alveolar basal epithelial cells, in the Calu-3 cell line derived from adenocarcinomic human bronchial epithelial cells, in the CaCo-2 cell line derived from human colon carcinoma and in the […] human liver cancer cell line was comparatively assessed. Cells were exposed to 1, 10, 100 and 1000 µM of either molecules or DMSO for 4 hours or overnight (on) at 37° C. before being assessed for the expression of the above-mentioned genes by RT-PCR.

Compound | tissue pathology in different organs (PAS) [1] | AhR agonistic activity versus 3-IAld (overall) [2] | expression of the IDO1 and IDO2 genes [2] | expression of AhR-dependent Cyp1a1, Cyp2a1 and AhRR genes ([2]; cell lines tested, 4 hours or overnight) | AhR activity at the higher 1000 M concentration [2] | extent of gene expression versus reference AhR ligands ITE or FICZ and 3-IAld ([2]; similar concentration, i.e. 100 μM)
Cn1cc(C(=O)O)c2ccccc21 [1-methylindole-3-carboxylic acid, 1-Methyl-1H-indole-3-carboxylic acid] | absence of visible tissue pathology | comparable, if not superior | No activity was observed | promoted the expression | inconsistent results | comparable, or even superior
O=Cc1c[nH]c2ccccc12 [3-IAld, 1H-indole-3-carbaldehyde] | absence of visible tissue pathology |  | No activity was observed |  | inconsistent results | 
